Assays:
[1] = Comparative studies of prior-art ascorbic acid solutions; assay type: physicochemical; settings: ascorbic acid with urea in propylene glycol, butylene glycol and propanediol
Description: This example was reproduced.
All mixtures were heated to 85° C.

[2] = Description: A series of experiments were performed to assess and optimize the components of the subject vitamin C formulations. […] U refers to urea. % values are wt %
erythema (skin redness) = settings: concentrations of 0.2%; clinical data from SEPPIC; cited from earlier work
[3] = Solubility of optional additional components in the solvents; assay type: physicochemical
Excerpt: Additional ingredients were chosen for their compatibility with (e.g., miscibility in) 1,3 propanediol, 1,2 propanediol, and 1,3 butanediol.

With `NC(N)=O` [urea] the “Maximum concentrations soluble before urea starts to precipitate (the ceiling)” value [1] was 20%, the “Minimum amount U required to solubilize 20% AA” value [2] was about 10% and the “Solubility of U in 1,3 propanediol (saturation reached before recrystallization of U)” value [2] was about 27.8%.

In the case of madecassoside, the “Erythema (skin redness)” value (erythema (skin redness)) is given as “desirable ability to reduce erythema” and the “Solubility in 1,3 propanediol, 1,2 propanediol and 1,3 butanediol” value ([3]; at a concentration of 0.2%) is given as “soluble”.

For `COc1cc(CC(C(C)=O)C(C)=O)ccc1O` [Acetyl zingerone], the “Solubility in 1,3 propanediol, 1,2 propanediol and 1,3 butanediol” value ([3]; at the desired concentrations (0.5-1%)) was “readily soluble”.

In the case of `CC1(C)[C@@H](O[C@H]2O[C@H](C(=O)O)[C@@H](O)[C@H](O)[C@H]2O[C@@H]2O[C@H](C(=O)O)[C@@H](O)[C@H](O)[C@H]2O)CC[C@]2(C)[C@H]3C(=O)C=C4[C@@H]5C[C@@](C)(C(=O)O)CC[C@]5(C)CC[C@@]4(C)[C@]3(C)CC[C@@H]12` [glycyrrhizic acid, Glycyrrhizic acid], the “Solubility in 1,3-propanediol” value ([3]; unlike 18B-glycyrrhetinic acid) is reported as “shows solubility”.

For `O=C(O)CCCCCCCC(=O)O` [AzA, Azelaic acid, reference compound], the “Concentration solubilized in 1,3 propanediol” value [3] was “up to 10%”, the “Solubility in 1,3 propanediol in the presence of hydroxyethyl urea” value [3] was “slightly increased” and the “Concentration solubilized in a 1,3 propanediol base” value ([3]; with 10% AA, 5% U) was 7.5%.
